# Patent US20220127297A1, “Novel Antibacterial 3"-Derivatives Of 4,6-Disubstituted 2,5-Dideoxystreptamine Aminoglycoside Antibiotics” (AGILeBiotics B.V., priority 2018, published 2022)
# System: A. baumannii DSM 105126
# Experiment: MIC 50, broth micro-dilution, DSM strains
# Assay type: cell-based, Acinetobacter baumannii
# Conditions: not given
# Text: 3.2 Against Selected Bacteria of the ESKAPE Panel and Enterococcus faecalis (DSM Strains)
# Tested reference compounds. Amikacin sulfate (Cat. No. 01693, Chem-Impex), Gentamicin sulfate (Cat. No. G4918, Sigma Aldrich).
# Microbial strains. Enterococcus faecalis DSM 2570, Klebsiella pneumoniae DSM 26371, Acinetobacter baumannii DSM 105126, Enterobacter cloacae 3MRGN (clinical bronchial aspirate isolate).
# Culture media and equipment. BBL™ Mueller Hinton Broth 2 (Lot. BCBW1143, Cat. No. 70192, Sigma); Trypcase Soy Blood-agar plates (Cat. No. 43001, Biomérieux); Cryoinstant (contains 15% glycerol; Cat. No. 822070ZA, VWR International); GasPak™ EZ Standard Incubation Container (Cat. No. 260671, Becton Dickinson); GasPak™ EZ Campy Container System Sachets (Cat. No. 260680, Becton Dickinson); 96-well deep well plate, 1 mL (Cat. No. 0030506.200, Eppendorf); Plate lid (Cat. No. 0030131.525, Eppendorf); 96-well plate, F-bottom (Cat. No. 260860, Nunc); Incubator (Sartorius Certomat BS-1); Laminar flow (Heraeus HS12); UV/VIS meter (Perkin Elmer Lambda Bio+); Platereader (Tecan Infinite M200 Pro).
# Compound preparation. Compounds were prepared in MH2 media at a concentration of 5 mM and stored at 4° C. For testing, solutions of 128 μM were prepared in MH2, for tests against E. faecalis a solution of 512 μM was prepared. Out of these working solutions, 400 μL was transferred to wells in the first column of 96-well deep well plates. Each compound was transferred in triplicate. Plates were previously filled with 200 μL of MH2 media in all wells except for the wells in the first column. After compound and antibiotic addition, the compounds were serial two-fold diluted by transferring 200 μL from the first to the second column, then from the second to the third column and so on. Finally, 200 μL was removed from the last column.
# Inoculum preparation. Microorganisms used were all revived from 15% glycerol storage in Croinstant tubes at −28° C. by plating them on blood agar plates. A. baumanni, and E. cloacae were grown aerobically at 37° C., E. faecalis was grown microaerophilically at 37° C., and K. pneumoniae was grown aerobically at 37° C. Plates were stored at 4° C. for up to two weeks, after which new plates were prepared from −28° C. A single colony was inoculated in MH2 media and grown at 37° C. and 200 rpm to an optical density (measured by UV/Vis spectroscopy) of 0.6-0.8 at 600 nm. Out of these suspensions, actual inoculums were prepared by diluting them to an optical density of 0.1 in MH2 media. From these inoculums, 200 μL was transferred to each well, resulting in a final compound concentration range of 64 μM-31.3 nM for, K. pneumoniae, A. baumanni, and E. cloacae, and 256 μM-125 nM for E. faecalis. Plates inoculated with E. faecalis were placed inside a GasPak™ Container System with GasPak™ Campy Container System sachets. All plates were incubated at 200 rpm for 18 h under the microorganism culturing conditions mentioned above.
# MIC determination. After 18 h of growth, 200 μL was transferred to a 96-well F-bottom plate. The optical density was determined by a plate reader at 600 nm, with 10 s shaking before reading. Triplicate measurements were averaged, and a growth curve was plotted in Excel. The first column in which the growth reached half the value of maximum growth was determined as the MIC50 value for that particular compound.
# MIC50. The MIC50 of a compound was assigned at which the bacterial growth reached half the value of maximum growth.
row,Compound,MIC50 [µM]
1,"NCC[C@H](O)C(=O)N[C@@H]1CC(N)[C@@H](O[C@H]2OC(CN)[C@@H](O)CC2N)[C@H](O)C1OC1O[C@H](CO)[C@@H](O)C(N)[C@H]1O (some centres unmarked) [ABX5004, Tobra-AHB]",0.5
2,"NCC[C@H](O)C(=O)N[C@@H]1CC(N)[C@@H](O[C@H]2OC(CN)[C@@H](O)[C@@H](O)C2N)[C@H](F)C1OC1O[C@H](CO)[C@@H](O)C(N)[C@H]1O (stereo partly drawn) [ABX4003, 3′Epi-KanaB-AHB-F]",0.5
3,"N=C(N)NC1[C@@H](O)C(OC2[C@@H](O)[C@H](O[C@H]3OC(CN)[C@@H](O)CC3N)C(N)C[C@H]2NC(=O)[C@@H](O)CCN)O[C@H](CO)[C@H]1O (some centres unmarked) [ABX5005, Tobra-AHB-Gua]",0.25
4,"NCC[C@H](O)C(=O)N[C@@H]1CC(N)[C@@H](O[C@H]2OC(CN)[C@@H](O)CC2N)[C@H](F)C1OC1O[C@H](CO)[C@@H](O)C(N)[C@H]1O (some centres unmarked) [ABX5024, Tobra-AHB-F]",0.125
5,"NCC[C@H](O)C(=O)N[C@@H]1C[C@H](N)[C@@H](O[C@H]2O[C@H](CN)[C@@H](O)[C@@H](O)[C@H]2O)[C@H](O)[C@H]1O[C@H]1O[C@H](CO)[C@@H](O)[C@H](N)[C@H]1O [ABX3002, 3′Epi-KanaA-AHB]",2
6,"N=C(N)NC1[C@@H](O)C(OC2[C@@H](O)[C@H](O[C@H]3OC(CN)[C@@H](O)[C@H](O)C3N)C(N)C[C@H]2NC(=O)[C@@H](O)CCN)O[C@H](CO)[C@H]1O (some centres unmarked) [ABX4009, KanaB-AHB-Gua]",0.5
7,"NCCC(O)C(=O)NC1CC(N)C(OC2OC(CN)C(O)C(O)C2O)C(F)C1OC1OC(CO)C(O)C(N)C1O (stereo not drawn) [ABX3005, 3′Epi-KanaA-AHB-F]",1
8,"N=C(N)NC1[C@@H](O)C(OC2[C@@H](F)[C@H](O[C@H]3OC(CN)[C@@H](O)[C@H](O)C3N)C(N)C[C@H]2NC(=O)[C@@H](O)CCN)O[C@H](CO)[C@H]1O (stereo partly drawn) [ABX4004, 3′epi-KanaB-AHB-F-Gua]",0.125
9,"N=C(N)N[C@@H]1[C@@H](O)[C@@H](O[C@@H]2[C@@H](O)[C@H](O[C@H]3O[C@H](CN)[C@@H](O)[C@@H](O)[C@H]3N)[C@@H](N)C[C@H]2NC(=O)[C@@H](O)CCN)O[C@H](CO)[C@H]1O [ABX4005, 3′Epi-KanaB-AHB-Gua]",0.5

# Same assay, conditions: Acinetobacter baumannii, DSM105126, read-out: MIC 50
row,Compound,MIC50 [µM]
1,"CNCCNC(=N)NC1[C@@H](O)C(OC2[C@@H](F)[C@H](O[C@H]3OC(CN)[C@@H](O)CC3N)C(N)C[C@H]2NC(=O)[C@@H](O)CCN)O[C@H](CO)[C@H]1O (some centres unmarked) [ABX5038, Tobra-AHB-F-Gua 2-(methylamino)ethyl]",0.0625 to 0.125
2,"N=C(N)NC1[C@@H](O)C(OC2[C@@H](F)[C@H](O[C@H]3OC(CNCCO)[C@@H](O)CC3N)C(N)C[C@H]2NC(=O)[C@@H](O)CCN)O[C@H](CO)[C@H]1O (some centres unmarked) [ABX5045, 6N-2-hydroxy-ethyl-Tobra-AHB-F-Gua]",0.5
3,"N=C(N)NC1[C@@H](O)C(OC2[C@@H](F)[C@H](O[C@H]3OC(CN)[C@@H](O)[C@H](O)C3O)C(N)C[C@H]2NC(=O)[C@@H](O)CCN)O[C@H](CO)[C@H]1O (stereo partly drawn) [ABX3003, 3′epi-KanaA-AHB-F-Gua]",0.0625 to 0.125
4,"N=C(NCC1CC1)NC1[C@@H](O)C(OC2[C@@H](F)[C@H](O[C@H]3OC(CN)[C@@H](O)CC3N)C(N)C[C@H]2NC(=O)[C@@H](O)CCN)O[C@H](CO)[C@H]1O (some centres unmarked) [ABX5027, Tobra-AHB-F-Gua cyclopropylmethyl]",0.125
5,"N=C(NCc1ccncc1)NC1[C@@H](O)C(OC2[C@@H](F)[C@H](O[C@H]3OC(CN)[C@@H](O)CC3N)C(N)C[C@H]2NC(=O)[C@@H](O)CCN)O[C@H](CO)[C@H]1O (some centres unmarked) [ABX5048, Tobra-AHB-F-Gua pyridin-4-yl methyl]",0.5
6,"N=C(NC[C@H]1CCNC1)NC1[C@@H](O)C(OC2[C@@H](F)[C@H](O[C@H]3OC(CN)[C@@H](O)CC3N)C(N)C[C@H]2NC(=O)[C@@H](O)CCN)O[C@H](CO)[C@H]1O (stereo partly drawn) [ABX5042, Tobra-AHB-F-Gua (S) pyrrolidine-3-ylmethyl]",0.0625
7,"NCC[C@H](O)C(=O)N[C@@H]1C[C@H](N)[C@@H](O[C@H]2O[C@H](CN)[C@@H](O)[C@H](O)[C@H]2O)[C@H](O)[C@H]1O[C@H]1O[C@H](CO)[C@@H](O)[C@H](N)[C@H]1O [Amikacin, amikacin, reference compound]",0.5
8,"C[C@@H](N)CCNC(=N)NC1[C@@H](O)C(OC2[C@@H](F)[C@H](O[C@H]3OC(CN)[C@@H](O)CC3N)C(N)C[C@H]2NC(=O)[C@@H](O)CCN)O[C@H](CO)[C@H]1O (stereo partly drawn) [ABX5047, Tobra-AHB-F-Gua (R) 3-amino-butyl]",0.125
9,"N=C(NC[C@@H]1CNCCO1)NC1[C@@H](O)C(OC2[C@@H](F)[C@H](O[C@H]3OC(CN)[C@@H](O)CC3N)C(N)C[C@H]2NC(=O)[C@@H](O)CCN)O[C@H](CO)[C@H]1O (stereo partly drawn) [ABX5040, Tobra-AHB-F-Gua (S) morpholin-2-yl methyl]",0.0625 to 0.125
10,"CC(C)(C)CCNC(=N)NC1[C@@H](O)C(OC2[C@@H](F)[C@H](O[C@H]3OC(CN)[C@@H](O)CC3N)C(N)C[C@H]2NC(=O)[C@@H](O)CCN)O[C@H](CO)[C@H]1O (some centres unmarked) [ABX5025, Tobra-AHB-F-Gua 2-tBu-ethyl]",0.25
11,"N=C(NCCN)NC1C(O)[C@@H](CO)OC(OC2C(F)[C@H](O[C@H]3OC(CN)[C@@H](O)CC3N)C(N)C[C@H]2NC(=O)[C@@H](O)CCN)[C@@H]1O (some centres unmarked) [ABX5020, Tobra-AHB-F-Gua-2-amino-ethyl]",0.0625 to 0.125
12,"N=C(NCC1CCCO1)NC1[C@@H](O)C(OC2[C@@H](F)[C@H](O[C@H]3OC(CN)[C@@H](O)CC3N)C(N)C[C@H]2NC(=O)[C@@H](O)CCN)O[C@H](CO)[C@H]1O (some centres unmarked) [ABX5046, Tobra-AHB-F-Gua tetrahydrofuran-2-yl methyl]",0.25
13,"N=C(NC[C@H]1CNCCO1)NC1[C@@H](O)C(OC2[C@@H](F)[C@H](O[C@H]3OC(CN)[C@@H](O)CC3N)C(N)C[C@H]2NC(=O)[C@@H](O)CCN)O[C@H](CO)[C@H]1O (stereo partly drawn) [ABX5043, Tobra-AHB-F-Gua (R) morpholin-2-yl methyl]",0.0625 to 0.125
14,"N=C(NC[C@@H]1CCNC1)NC1[C@@H](O)C(OC2[C@@H](F)[C@H](O[C@H]3OC(CN)[C@@H](O)CC3N)C(N)C[C@H]2NC(=O)[C@@H](O)CCN)O[C@H](CO)[C@H]1O (stereo partly drawn) [ABX5039, Tobra-AHB-F-Gua (R) pyrrolidine-3-ylmethyl]",0.0625
15,"N=C(N)NC1C(O)[C@@H](CO)OC(OC2C(F)[C@H](O[C@H]3OC(CN)[C@@H](O)CC3N)C(N)C[C@H]2NC(=O)[C@@H](O)CCN)[C@@H]1O (some centres unmarked) [ABX5006, Tobra-AHB-F-Gua]",0.0625
16,"N=C(NCc1cnc[nH]1)NC1[C@@H](O)C(OC2[C@@H](F)[C@H](O[C@H]3OC(CN)[C@@H](O)CC3N)C(N)C[C@H]2NC(=O)[C@@H](O)CCN)O[C@H](CO)[C@H]1O (some centres unmarked) [ABX5050, Tobra-AHB-F-Gua imidazol-5-yl methyl]",0.5
17,"N=C(N)NC1[C@@H](O)C(OC2[C@@H](F)[C@H](O[C@H]3OC(CN)[C@@H](O)[C@H](O)C3N)C(N)C[C@H]2NC(=O)[C@@H](O)CCN)O[C@H](CO)[C@H]1O (some centres unmarked) [ABX4006, KanaB-AHB-F-Gua]",0.125
18,"N=C(NCCCO)NC1[C@@H](O)C(OC2[C@@H](F)[C@H](O[C@H]3OC(CN)[C@@H](O)CC3N)C(N)C[C@H]2NC(=O)[C@@H](O)CCN)O[C@H](CO)[C@H]1O (some centres unmarked) [ABX5041, Tobra-AHB-F-Gua 3-hydroxy-propyl]",0.25
19,"N=C(NCCCN)NC1[C@@H](O)C(OC2[C@@H](F)[C@H](O[C@H]3OC(CN)[C@@H](O)CC3N)C(N)C[C@H]2NC(=O)[C@@H](O)CCN)O[C@H](CO)[C@H]1O (some centres unmarked) [ABX5030, Tobra-AHB-F-Gua-3-amino-propyl]",0.0312 to 0.0625
20,"N=C(NCCO)NC1[C@@H](O)C(OC2[C@@H](F)[C@H](O[C@H]3OC(CN)[C@@H](O)CC3N)C(N)C[C@H]2NC(=O)[C@@H](O)CCN)O[C@H](CO)[C@H]1O (some centres unmarked) [ABX5029, Tobra-AHB-F-Gua 2-hydroxy-ethyl]",0.0625
